Results on 1 molecule are retold here after PMC5461267, “Membrane Guanylate Cyclase catalytic Subdomain: Structure and Linkage with Calcium Sensors and Bicarbonate” (Frontiers in Molecular Neuroscience, 2017).

The target in assay [1] is T1, ROS-GC1 (rod outer segment guanylate cyclase type 1), full-length recombinant (Bos taurus, UniProt P55203, A1013R).
T1 construct: gene GUCY2D
T1 sequence (P55203 57-1110 A1013R): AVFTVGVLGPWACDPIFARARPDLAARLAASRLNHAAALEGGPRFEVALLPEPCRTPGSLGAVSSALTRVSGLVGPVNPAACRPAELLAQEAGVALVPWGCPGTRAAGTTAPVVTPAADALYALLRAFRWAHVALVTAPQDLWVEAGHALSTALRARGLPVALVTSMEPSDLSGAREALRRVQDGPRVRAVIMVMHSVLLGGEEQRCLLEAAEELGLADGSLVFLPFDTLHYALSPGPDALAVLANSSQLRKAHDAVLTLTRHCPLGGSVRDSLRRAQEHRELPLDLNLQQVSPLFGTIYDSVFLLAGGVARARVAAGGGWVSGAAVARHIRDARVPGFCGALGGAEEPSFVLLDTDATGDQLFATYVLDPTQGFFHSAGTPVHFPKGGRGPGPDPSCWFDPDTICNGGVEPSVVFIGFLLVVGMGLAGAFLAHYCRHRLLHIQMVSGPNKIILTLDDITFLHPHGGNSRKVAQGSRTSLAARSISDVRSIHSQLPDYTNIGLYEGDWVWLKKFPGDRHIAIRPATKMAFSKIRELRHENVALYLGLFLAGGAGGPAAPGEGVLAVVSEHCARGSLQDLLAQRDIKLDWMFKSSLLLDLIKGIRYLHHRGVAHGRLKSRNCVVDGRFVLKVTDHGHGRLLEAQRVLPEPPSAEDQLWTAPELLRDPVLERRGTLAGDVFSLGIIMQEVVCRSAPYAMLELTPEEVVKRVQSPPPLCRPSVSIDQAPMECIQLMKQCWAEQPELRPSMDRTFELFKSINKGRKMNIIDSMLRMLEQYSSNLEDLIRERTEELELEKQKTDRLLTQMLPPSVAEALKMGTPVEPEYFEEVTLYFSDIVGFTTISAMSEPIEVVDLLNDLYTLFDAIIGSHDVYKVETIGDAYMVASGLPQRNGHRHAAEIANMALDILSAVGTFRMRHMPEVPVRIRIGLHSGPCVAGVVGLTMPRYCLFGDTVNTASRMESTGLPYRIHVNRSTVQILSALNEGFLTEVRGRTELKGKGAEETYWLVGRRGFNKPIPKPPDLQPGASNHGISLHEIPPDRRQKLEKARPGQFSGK
In words: biochemical.

Assay [2] addresses T2, ROS-GC1 (rod outer segment guanylate cyclase type 1), full-length recombinant (Bos taurus, UniProt P55203, A1013R/D934A).
T2 construct: gene GUCY2D
T2 sequence (P55203 57-1110 D934A/A1013R): T1 sequence (P55203 57-1110 A1013R) with D878A
In words: biochemical.

Positions count from the first letter of the chain named.

As for `O=C(O)O` [bicarbonate], the EC50 (commonly the concentration needed to bring the measured effect to its halfway point) in assay [1] was 25 mM; in assay [2], around 30 mM.
